Read-outs that look alike come from different tables or passages of the source.
Legend:
MGC-803 cells [1] = settings: 48 h, cited from earlier work
HCT-116 cells = assay: MTT antiproliferative assay, HCT-116 cells; assay type: cell-based, human; settings: exposure for 48 h
Procedure: (§1) The in vitro antiproliferative activities of new target compounds 6a–6g, 9a–9i, 10a–10j, 11a–11j, and 14a–14d were evaluated against four human cancer cell lines (MGC-803, PC-3, HCT-116, and MCF-7) using MTT assay and 5-FU as a positive drug. The following Tables 1–[4] depicted the results of in vitro antiproliferative activity.
(§2) Cell lines used were cultured in humidified incubator in a humidified atmosphere of 5% CO2 and 95% air. The RPMI-1640 medium was supplemented with 10% foetal bovine serum, penicillin (100 U/ml) and streptomycin (0.1 mg/ml).
(§3) Cell lines were seeded into 96-well plates and incubated for 24 h. Then cells were treated with different concentrations of compounds. And after another 48 h, MTT reagent (20 μL per well) was added to each well and then incubated at 37 °C for 4 h. After the suspension was discarded, formazan was then dissolved with DMSO. Absorbencies of formazan solution were measured at 490 nm. The IC50 values of tested compounds were calculated by SPSS version 17.0.

GES-1 cells = assay: MTT antiproliferative assay, GES-1 normal gastric epithelial cells; assay type: cell-based; settings: MTT, exposure for 48 h, non-cancer cell line
Source text: (§4) Furthermore, MGC-803 cells were more sensitive to the compounds than HCT-116, PC-3 cells MCF-7 cells. Moreover, we chose two other common gastric cancer cell lines (HGC-27 and SGC-7901) and another two normal cells GES-1 and HUEVC cells to examine for the inhibitory activity of compound 9i.
Since compound 9i presented high potency against cancer cells and MGC-803 cells was more sensitive to compound 9i, compound 9i, MGC-803, another two gastric cancer cells SGC-7901, HGC-27, and GES-1(normal gastric epithelial cells) were used for further detection. As shown in Figures 3(A,B), compound 9i inhibited three gastric cancer cell lines in the dose and time-dependent manners. The inhibition ratios of compound 9i against three gastric cancer cells were all above 50% after 48 h in the high dosage group. Moreover, MGC-803 and SGC-7901 cell lines were more sensitive and compound 9i inhibited over 65% cell viability with high dose treatment for 48 h.
as §2, §3

MCF-7 cells = assay: MTT antiproliferative assay, MCF-7 cells; assay type: cell-based, human; settings: exposure for 48 h
Procedure: as §1, §2, §3

HUEVC cells = assay: MTT antiproliferative assay, HUEVC normal cells; assay type: cell-based; settings: exposure for 48 h, non-cancer cell line
Procedure: as §4, §2, §3

HGC-27 cells = assay: MTT antiproliferative assay, HGC-27 gastric cancer cells; assay type: cell-based; settings: MTT, exposure for 48 h
Procedure: as §4, §2, §3

SGC-7901 cells = assay: MTT antiproliferative assay, SGC-7901 gastric cancer cells; assay type: cell-based; settings: exposure for 48 h
Procedure: as §4, §2, §3

PC-3 cells = assay: MTT antiproliferative assay, PC-3 cells; assay type: cell-based, human
Procedure: as §1, §2, §3

MGC-803 cells [2] = assay: MTT antiproliferative assay, MGC-803 cells; assay type: cell-based, human; settings: Homo sapiens, MGC-803, 48 h, exposure for 48 h
Procedure: as §1, §2, §3

[3] = Homo sapiens, PC-3, exposure for 48 h

SMILES	IC50 (HCT-116 cells; Homo sapiens, HCT-116, 48 h) [µM]	IC50 (MCF-7 cells; Homo sapiens, MCF7, 48 h) [µM]	IC50 (PC-3 cells; [3]) [µM]	melting point [°C]	IC50 (MGC-803 cells [2]) [µM]	also measured
COc1ccc(CN(C(=O)CSc2nc3ccccc3[nH]2)c2cc(OC)c(OC)c(OC)c2)cc1 [Compound 1]						IC50 (MGC-803 cells [1]; previously reported compound 1 ref 31): 1230 nM
COc1cc(N(Cc2nc3ccccc3[nH]2)S(=O)(=O)c2ccc(C)cc2)cc(OC)c1OC [Compound 2]						IC50 (MGC-803 cells [1]; previously reported compound 2 ref 32): 1020 nM
O=c1[nH]cc(F)c(=O)[nH]1 [Compound 5-Fu, reference compound]						IC50 (HCT-116 cells): 14.4 ± 1.73 µM; IC50 (GES-1 cells): 10.2 µM; IC50 (MCF-7 cells): 12.1 ± 1.28 µM; IC50 (HUEVC cells): 18.5 µM; IC50 (HGC-27 cells): 4.94 µM; IC50 (SGC-7901 cells): 3.88 µM; IC50 (PC-3 cells; exposure for 48 h): 17.1 ± 1.42 µM
COc1cc(N(Cc2nc(C)c3ccccc3n2)C(=O)c2ccccc2)cc(OC)c1OC [Compound 11a, N-((4-Methylquinazolin-2-yl)methyl)-N-(3,4,5-trimethoxyphenyl) benzamide]	19.8 ± 1.49	25.3 ± 1.78	25.3 ± 1.78	112 to 113	18.5 ± 1.17	
COc1cc(N(Cc2nc(C)c3ccccc3n2)C(=O)c2ccc(F)cc2)cc(OC)c1OC [Compound 11b, 4-Fluoro-N-((4-methylquinazolin-2-yl)methyl)-N-(3,4,5-trimethoxyphenyl) benzamide]	18.9 ± 1.23	29.7 ± 1.83	31.1 ± 2.04	162 to 163	14.1 ± 1.01	
COc1cc(N(Cc2nc(C)c3ccccc3n2)C(=O)c2ccc(Br)cc2)cc(OC)c1OC [Compound 11c, 4-Bromo-N-((4-methylquinazolin-2-yl)methyl)-N-(3,4,5-trimethoxyphenyl) benzamide]	20.4 ± 1.23	28.1 ± 1.47	26.8 ± 1.32	182 to 183	13.6 ± 1.24	
COc1cc(N(Cc2nc(C)c3ccccc3n2)C(=O)c2ccccc2Cl)cc(OC)c1OC [Compound 11d, 2-Chloro-N-((4-methylquinazolin-2-yl)methyl)-N-(3,4,5-trimethoxyphenyl) benzamide]	> 40	> 40	> 40	190 to 191	> 40	
COc1cc(N(Cc2nc(C)c3ccccc3n2)C(=O)c2c(C)cc(C)cc2C)cc(OC)c1OC [Compound 11f, 2,4,6-Trimethyl-N-((4-methylquinazolin-2-yl)methyl)-N-(3,4,5-trimethoxyphenyl) benzamide]	28.5 ± 2.64	> 40	> 40	209 to 210	32.8 ± 2.12	
COc1cc(N(Cc2nc(C)c3ccccc3n2)C(=O)c2ccc(C(C)(C)C)cc2)cc(OC)c1OC [Compound 11g, 4-(Tert-butyl)-N-((4-methylquinazolin-2-yl)methyl)-N-(3,4,5-trimethoxyphenyl) benzamide]	> 40	> 40	> 40	117 to 118	> 40	
COc1cc(C(=O)N(Cc2nc(C)c3ccccc3n2)c2cc(OC)c(OC)c(OC)c2)cc(OC)c1OC [Compound 11i, 3,4,5-Trimethoxy-N-((4-methylquinazolin-2-yl)methyl)-N-(3,4,5-trimethoxyphenyl) benzamide]	20.4 ± 1.92	> 40	> 40	129 to 130	16.8 ± 2.02	
COc1cc(N(Cc2nc(C)c3ccccc3n2)C(=O)c2cccs2)cc(OC)c1OC [Compound 11j, N-((4-methylquinazolin-2-yl)methyl)-N-(3,4,5-trimethoxyphenyl)thiophene-2-carboxamide]	24.8 ± 2.13	> 40	> 40	136 to 137	14.7 ± 1.88	
COc1ccc(S(=O)(=O)N(Cc2nc(C)c3ccccc3n2)c2ccccc2)cc1 [Compound 14a, 4-Methoxy-N-((4-methylquinazolin-2-yl)methyl)-N-phenylbenzene-sulphonamide]	46.9 ± 1.84	> 50	> 50	85 to 86	44.6 ± 1.41	
COc1ccc(S(=O)(=O)N(Cc2nc(C)c3ccccc3n2)c2ccc(C)cc2)cc1 [Compound 14d, 4-Methoxy-N-((4-methylquinazolin-2-yl)methyl)-N-(p-tolyl)benzene-sulphonamide]	> 50	> 50	45.7 ± 2.88	129 to 130	42.2 ± 2.44	

Source: PMC8386742, “Discovery of N-aryl sulphonamide-quinazoline derivatives as anti-gastric cancer agents in vitro and in vivo via activating the Hippo signalling pathway” (Journal of Enzyme Inhibition and Medicinal Chemistry, 2021)
